Experimental data published in patent US11535633B2, “Fused tricyclic heterocycle compounds and therapeutic uses thereof” (Jiangsu Hengrui Medicine Co., Ltd., priority 2018, dated 2022).

Tests used:
Human PBMC cells = experiment: IFNβ secretion in human PBMC; format: cell-based; conditions: IFNβ in supernatant by ELISA, 5 hours incubation
Experimental: Test Example 3. IFNβ Secretion in Human PBMC
• 1. Human PBMC cells (STEMCELL Technologies) • 2. Lymphocyte Medium (Zenbio) • 3. Culture and compound dilution media: RPMI with high glucose and glutamine (Genesee, Cat. #25-506), 10% fetal bovine serum (Life Technologies, Cat. #10082147), 100 μg/ml Normocin (InvivoGen, Cat. #ant-nr-2) and Penicillin-Streptomycin (100×) (Life Technologies, Cat. #15140122) • 4. Human IFNβ Quantikine ELISA kit (R&D systems) • 5. Infinite M1000 plate reader (TECAN) Experimental Procedure
Cryopreserved peripheral blood human mononuclear cells (PBMCs) were rapidly thawed and resuspended in Lymphocyte Media and centrifuged at 500×g for 5 minutes. The supernatant was removed and the cell pellets were gently resuspended in cell culture and compound dilution media. Human PBMC cells were plated in a 96-well format at a concentration of 1.5×10^5 cells per well. The test compounds, at varying concentrations, or vehicle control (<0.3% DMSO) were mixed with the cells giving a final volume of 150 μl per well. The plates were incubated for 5 hours in a humidified, 5% CO2 incubator at 37° C. After incubation, the human IFNβ in the supernatant and the IFNβ standard controls were measured using human IFNβ Quantikine ELISA kit according to the manufacturer's protocol. The absorbance at 450 nm was measured with Infinite M1000 plate reader and corrected by background reading at 540 nm of each well. The amount of […] based on the standard curves. The plot of IFNβ concentration versus the log of compound concentration was fit in GraphPad Prism with a 4-parameter concentration response equation to calculate EC50 and Emax.

[1] = biological target: T1, STING in THP1-Dual KI-hSTING-R232 cells (Homo sapiens, UniProt Q86WV6, H232R); experiment: Human THP1 reporter cell assay (IRF luciferase reporter); format: cell-based; conditions: 24 hours incubation
T1 construct: host or cells: THP1-Dual KI-hSTING-R232 cells (human monocytic THP-1 reporter line)
Experimental: Test Example 2. Human THP1 Reporter Cell Assay
• 1. Human THP1-Dual KI-hSTING-R232 Cells (InvivoGen, Cat. #thpd-r232) • 2. QUANTI-LUC (InvivoGen, Cat. #rep-qlc2) • 3. Media for cell culture and compound dilution: RPMI with high glucose and glutamine (Genesee, Cat. #25-506), 10% fetal bovine serum (Life Technologies, Cat. #10082147), 25 mM HEPES (Genesee, Cat. #25-534), 100 μg/ml Normocin (InvivoGen, Cat. #ant-nr-2), 10 μg/ml blasticidin (InvivoGen, Cat. #ant-bl-05), 100 μg/ml Zeocin (InvivoGen, Cat. #ant-zn-5p) and Penicillin-Streptomycin (100×) (Life Technologies, Cat. #15140122) • 4. Infinite M1000 plate reader (TECAN) Experimental Procedure
Activation of STING in THP1-Dual KI-hSTING-R232 cells was determined by measuring the luminescence signal resulting from the expression of the IRF luciferase reporter gene. All reagent preparation and assay procedures were conducted according to the protocols provided by InvivoGen. In brief, test compounds and cells (1×10^5 cells per well) were dispensed into 96-well plates with a final volume per well of 150 μl. Plates were incubated in a humidified, 5% CO2 incubator at 37° C. for 24 hours. The expression level of the reporter gene was measured by transferring 20 μl of the supernatant to a non-transparent 96-well plate to which 50 μl of QUANTI-LUC was dispensed into each well. The resulting luminescence signal was immediately read using a TECAN plate reader. The background luminescence signal from media was subtracted. The fold induction effect of the luminescence signal at each compound concentration was determined relative to controls that lack compound treatment. The plot of fold induction effect versus the log of compound concentration was fit in GraphPad Prism with a 4-parameter concentration response equation to calculate EC50 and Emax.
Activation of STING in THP1 of the compounds in the present invention was determined by the above assay, and EC50 values are shown in the following table 2.

[2] = biological target: T2, hSTING c-terminal domain (purified hSTING aa154-342) (Homo sapiens, UniProt Q86WV6); experiment: Thermal shift assay for measuring the relative binding affinity to hSTING c-terminal domain; conditions: Tm of sample minus mean Tm of negative control (buffer, 2% DMSO), SYPRO Orange
T2 construct: Purified hSTING (aa154-342)
Experimental: Test Example 1. Thermal Shift Assay for Measuring the Relative Binding Affinity to hSTING c-Terminal Domain
From each of the 10 mM stock solutions of compounds in DMSO, dilutions are made to create samples with three concentrations 10 mM, 5 mM and 2.5 mM. From these dilutions a final 50 fold dilution is made into assay buffer, giving concentrations of 200 μM, 100 μM, and 50 μM. From each of the buffer dilutions, 5 μL is added to the 384 well assay plate. A positive control is setup with cGAMP using the same dilution scheme as the ligands. A baseline thermal shift for the negative control is determined using buffer and 2% DMSO.
An aliquot of protein is thawed on ice and SYPRO orange reagent is brought to room temperature. The 5000× SYPRO orange stock is diluted in assay buffer to a concentration of 10×. Protein is diluted to a concentration of 10 μM in the prepared buffer/dye solution. Five micro-liters of protein/buffer/dye solution is added to each of the sample and control wells, and the plate is sealed with the provided films. The plate is centrifuged for 5 min at 20° C. at 1000 rpm.
On the Light Cycler instrument, measurements are made over a temperature gradient from 20° C. to 99° C. at 0.07° C./s and data acquisitions collected at a rate of 8/° C. is used to measure the change in fluorescence as a function of temperature. Data analysis is performed using the Roche Light Cycler Software to determine the melting temperature (Tm ° C.) of each sample. A mean Tm ° C. for the negative control is calculated and subtracted from each of the samples to generate the ΔTm ° C. values for each of the ligands.
The relative binding affinity to hSTING c-terminal domain of the compounds of the present invention was determined by the above assay, and ΔTm ° C. values are shown in the following table 1.

T1 sequence (Q86WV6 whole entry H232R): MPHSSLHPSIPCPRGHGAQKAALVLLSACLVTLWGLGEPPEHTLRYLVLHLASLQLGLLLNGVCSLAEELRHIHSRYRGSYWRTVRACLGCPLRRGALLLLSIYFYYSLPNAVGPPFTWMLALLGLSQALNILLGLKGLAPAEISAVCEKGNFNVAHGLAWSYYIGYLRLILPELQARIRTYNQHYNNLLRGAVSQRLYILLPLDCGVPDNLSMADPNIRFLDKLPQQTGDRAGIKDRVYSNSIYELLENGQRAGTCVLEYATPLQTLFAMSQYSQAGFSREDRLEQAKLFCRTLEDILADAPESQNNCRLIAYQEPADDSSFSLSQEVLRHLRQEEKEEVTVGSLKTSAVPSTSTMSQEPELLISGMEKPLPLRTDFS
T2 sequence (Q86WV6 154-342): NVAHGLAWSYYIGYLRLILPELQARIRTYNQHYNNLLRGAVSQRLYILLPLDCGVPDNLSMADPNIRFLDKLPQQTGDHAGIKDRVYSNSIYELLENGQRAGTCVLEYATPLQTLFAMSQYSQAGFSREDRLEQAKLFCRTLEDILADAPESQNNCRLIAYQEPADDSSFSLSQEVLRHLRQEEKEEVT

Q: For `CCn1nc(C)cc1C(=O)Nc1nc2cc(C(N)=O)cc(OC)c2n1CCC[C@H]1COc2cc(C(N)=O)cc3nc(NC(=O)c4cc(C)nn4CC)n1c23` [Example 13, (S)-3-(3-(5-carbamoyl-2-(1-ethyl-3-methyl-1H-pyrazole-5-carboxamido)-7-methoxy-1H-benzo[d]imidazol-1-yl)propyl)-2-(1-ethyl-3-methyl-1H-pyrazole-5-carboxamido)-3,4-dihydro-5-oxa-1,2a-diazaacenaphthylene-7-carboxamide], which EC50 (Human PBMC cells) is on record?
A: 100 nM

Q: And the EC50 [1]?
A: 30 nM

Q: And the ΔTm at 100 µM [2]?
A: 10.7 °C
